Converted amounts (≈) assume the structure as drawn.
Tests used:
L. major promastigotes = assay: Antileishmanial assay, promastigotes; type: cell-based, Leishmania major; settings: mean ± S.D.; for IC50: Leishmania major
Method: (§1) This assay was carried out according to the methods mentioned in our previously published article. L. major promastigotes were isolated locally from an indoor patient in 2016, liquid nitrogen was used for the preservation of the parasites, and BALB/c mice were used for the maintenance of the parasites and production of L. major amastigotes. Phenol red-free RPMI 1640 medium (Invitrogen, USA) with 10% FBS was used for the culture and in vitro evaluation, while amphotericin B (AmB) was used as reference drug.

[1] = tested on: colon carcinoma cells (HCT-116); assay: In vitro anticancer proliferation (cytotoxicity) assay; type: cell-based, human; settings: for IC50 HCT-116: mean ± S.D.; for IC50: Homo sapiens, HCT-116, mean ± S.D.
Method: (§2) The selected compound was investigated for its cytotoxic properties against HCT-116 and HepG-2 (cancer cell lines of ATCC, Rockville, MD, USA). Vinblastine was applied as reference drug. The assay was conducted according to the methods described by Mossman and our recently published data.

[2] = tested on: hepatocellular carcinoma cell lines (HepG-2); assay: as above; type: cell-based, human; settings: hepatocellular carcinoma cells, mean ± S.D.; for IC50: Homo sapiens, HepG2
Method: as §2

[3] = DPPH radical scavenging activity; settings: antiradical scavenging; mean ± S.D.
Method: (§3) Three methods were used for the assessing antioxidant properties of the selected compounds, which are 2.2-diphenyl-1-picrylhydrazyl (DPPH), 2.2’-azino-bis (3-ethylbenzothiazoline-6-sulphonic acid) (ABTS) radicals scavenging, and β-carotene linoleic acid bleaching assay. […] The control compound was butylated hydroxytoluene (BHT), which is a potent antioxidant.
Briefly, various amounts of produced compounds were diluted with ultrapure water after being dissolved in dimethylsulfoxide (DMSO)/water (1/9; v/v) (1, 0.5, 0.250, 0.125, 0.0625, 0.03125 mg mL^−1). The samples were then combined with […] of a 4% (w/v) solution of the DPPH radical in ethanol. The combination was incubated for 30 min. at room temperature and in the dark. Spectrophotometric analysis was used to calculate the scavenging capacity by comparing the decrease in absorbance at 517 nm to a blank.
(§4) All the assays used for antioxidant determination (DPPH, ABTS, and β-carotene bleaching assay) were performed simultaneously three times in the same conditions. The results obtained in µM mL^−1 average of the three experiments.

[4] = β-Carotene linoleic acid bleaching assay; settings: β-carotene bleaching test; mean ± S.D.
Method: as §3
β-Carotene bleaching test was conducted following the method described by Pratt’s.
as §4

Vero cell = assay: In vitro cytotoxicity assay, MTT; type: cell-based; settings: mean ± S.D.
Method: (§5) MTT colorimetric technique was carried out for cytotoxicity evaluation according to the methods mentioned in our previously published article. An amount of 96 well plates with complete were used for the culture of the cells. FLUOstar OPTIMA spectrophotometer was applied for colorimetric analysis and in vitro evaluation.

TyrE = TyrE (Agaricus bisporus, UniProt C7FF04); type: biochemical
[5] = tested on: T. gondii tachyzoites RH strain; assay: Antitoxoplasmal assay; type: cell-based, Toxoplasma gondii; settings: mean ± S.D.; for IC50: Toxoplasma gondii
Method: This assay was carried out according to the methods mentioned in our previously published article. Vero cells line (ATCC® CCL81™, USA) were used for the serial passage and cultivation of T. gondii tachyzoites RH strain, complete RPMI 1640 medium with heat-inactivated 10% FBS was used for the culture and in vitro evaluation, while atovaquone (ATO) was used as reference drug. The results were expressed in IC50 of three independent readings, followed by the selectivity index (SI) calculation by dividing CC50 over IC50 of the same compound [56].

L. major amastigotes = assay: Antileishmanial assay, amastigotes; type: cell-based, Leishmania major; settings: mean ± S.D.; for IC50: Leishmania major, read-out: Amastigote IC50
Method: as §1

[6] = ABTS radical scavenging assay; settings: antiradical scavenging; mean ± S.D.
Method: as §3
ABTS radical scavenging activity was conducted by referring to the method of Re et al..
as §4

S. typhimurium [7] = assay: Minimum inhibitory concentration (MIC); type: cell-based, Salmonella typhimurium
Method: (§6) Microorganisms, media and growth conditions, agar well diffusion method for inhibition zone determination (IZ) and minimum inhibitory concentration (MIC) were performed according to the literature work.
(§7) The synthesized compounds were examined in vitro for their antimicrobial activity against Six standard microorganisms of ATCC, two Gram positive bacteria S. aureus and Listeria monocytogenes, three Gram negative bacteria Esherichia coli, Pseudomonas aeruginosa and Salmonella typhimurium and the fungus C. albicans. Bacteria were cultured in Luria-Bertani (LB) medium, while Sabouraud agar was used for culturing C. albicans and the assay conducted according to our previous techniques. The results were the average of 3 readings.

S. aureus [8] = assay: Minimum inhibitory concentration (MIC); type: cell-based
Method: as §6, §7

C. albicans [9] = assay: Minimum inhibitory concentration (MIC); type: cell-based
Method: as §6, §7

L. monocytogenes [10] = assay: Minimum inhibitory concentration (MIC); type: cell-based, Listeria monocytogenes
Method: as §6, §7

[11] = tested on: all examined microorganisms; assay: Antimicrobial activity, summary over all examined microorganisms; type: cell-based; settings: for Inhibition of the examined indicator organisms: all of the examined indicator organisms
Method: as §6, §7

E. coli = assay: Agar well diffusion, inhibition zone; type: cell-based, Esherichia coli
Method: as §6, §7

S. typhimurium [12] = assay: Agar well diffusion, inhibition zone; type: cell-based, Salmonella typhimurium
Method: as §6, §7

L. monocytogenes [13] = assay: Agar well diffusion, inhibition zone; type: cell-based, Listeria monocytogenes
Method: as §6, §7

S. aureus [14] = assay: Agar well diffusion, inhibition zone; type: cell-based
Method: as §6, §7

C. albicans [15] = assay: Agar well diffusion, inhibition zone; type: cell-based
Method: as §6, §7

P. aeruginosa = assay: Agar well diffusion, inhibition zone; type: cell-based, Pseudomonas aeruginosa
Method: as §6, §7

electric eel AChE = electric eel AChE (Electrophorus electricus, UniProt O42275); assay: biochemical; type: biochemical; settings: mean ± S.D.; for IC50: read-out: AChEI IC50 (converted)
Method: According to the Ellman et al. published spectrophotometric method of electric eel AChE [47], AChEI activity was measured. Acetylthiocholine iodide (ATCI) was used as the reaction’s substrate, and the antiacetylcholinesterase activity was measured using 5,5’-Dithiobis-(2-nitrobenzoic acid) (DTNB).

[16] = In vitro cytotoxicity assay, MTT; type: cell-based; settings: African green monkey, Vero cells, mean ± S.D., read-out: CC50 Toxicity (Vero Cell)
Method: as §5

[17] = against all examined microorganisms

Chain of TyrE (C7FF04 1-392): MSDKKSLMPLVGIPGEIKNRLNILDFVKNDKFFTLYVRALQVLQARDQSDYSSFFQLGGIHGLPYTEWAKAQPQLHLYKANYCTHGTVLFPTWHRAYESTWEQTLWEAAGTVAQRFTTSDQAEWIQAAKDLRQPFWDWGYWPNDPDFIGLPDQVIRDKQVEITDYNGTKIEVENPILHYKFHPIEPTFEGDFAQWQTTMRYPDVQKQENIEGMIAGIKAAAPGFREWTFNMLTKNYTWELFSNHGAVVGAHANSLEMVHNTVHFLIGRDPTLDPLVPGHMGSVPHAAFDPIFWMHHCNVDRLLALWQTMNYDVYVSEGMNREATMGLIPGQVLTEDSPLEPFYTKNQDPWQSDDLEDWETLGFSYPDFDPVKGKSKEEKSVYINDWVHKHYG
Chain of electric eel AChE (O42275 24-633): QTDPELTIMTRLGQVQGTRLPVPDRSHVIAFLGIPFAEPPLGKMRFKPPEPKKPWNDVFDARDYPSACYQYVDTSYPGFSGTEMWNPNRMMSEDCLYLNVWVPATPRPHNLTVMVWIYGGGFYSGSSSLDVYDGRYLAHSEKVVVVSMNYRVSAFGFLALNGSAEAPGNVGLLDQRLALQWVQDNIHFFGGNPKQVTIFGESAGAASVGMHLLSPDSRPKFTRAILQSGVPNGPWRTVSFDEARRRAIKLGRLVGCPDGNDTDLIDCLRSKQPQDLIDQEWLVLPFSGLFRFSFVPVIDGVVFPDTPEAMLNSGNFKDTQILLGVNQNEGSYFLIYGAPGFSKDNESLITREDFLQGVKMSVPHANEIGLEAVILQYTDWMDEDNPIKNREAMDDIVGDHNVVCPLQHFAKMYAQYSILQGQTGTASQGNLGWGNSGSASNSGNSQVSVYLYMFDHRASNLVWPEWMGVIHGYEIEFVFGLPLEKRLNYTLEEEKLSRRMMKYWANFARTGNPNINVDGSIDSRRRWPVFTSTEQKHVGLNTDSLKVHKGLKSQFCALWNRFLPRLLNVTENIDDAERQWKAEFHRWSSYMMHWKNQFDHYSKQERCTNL

Row | Compound | Promastigotes IC50 (L. major promastigotes) [µM mL^−1] | IC50 HCT-116 [1] [µM mL^−1] | IC50 HepG-2 [2] [µM mL^−1] | DPPH IC50 [3] [µM mL^−1] | β-Carotene IC50 [4] [µM mL^−1] | CC50 Toxicity (Vero Cell) (Vero cell) [µM mL^−1] | TyrEI IC50 (TyrE) [µM mL^−1] | Toxoplasma IC50 [5] [µM mL^−1] | Amastigote IC50 (L. major amastigotes) [µM mL^−1] | ABTS IC50 [6] [µM mL^−1] | IC50 [1] [µg/mL] | IC50 [2] [µg/mL] | also measured
1 | 5,6-Dimethyl-[1,3-(2,3,4,5,6-pentamethyl-2,4,6-trimethyl)-benzimidazol-2-ylidene](p-cymene) ruthenium(II) chloride [Compound 3a] | 0.45 ± 0.07 | 4.12 ± 0.6 | 9.21 ± 1.3 | 61.25 ± 10.3 | 401.12 ± 66.5 | 1.2 ± 0.3 | 50.75 ± 8.3 | 1.3 ± 0.2 | 2.4 ± 0.4 | 41.78 ± 7.3 | – | – | –
2 | 5,6-Dimethyl-[1,3-(2,3,4,5,6-pentamethyl-2,4,6-trimethyl)-benzimidazol-2-ylidene](p-cymene) ruthenium(II) chloride [Compound 3b] | 0.74 ± 0.08 | 19.45 ± 3.2 | 31.40 ± 4.8 | 43.05 ± 5.7 | 225.45 ± 31.5 | 1.3 ± 0.3 | 19.88 ± 2.4 | 1.4 ± 0.2 | 1.1 ± 0.2 | 32.05 ± 4.2 | – | – | MIC (S. typhimurium [7]): 3.9 µM mL^−1; MIC (S. aureus [8]): 3.9 µM mL^−1; MIC (C. albicans [9]): 1.25 µM mL^−1; MIC (L. monocytogenes [10]): 15.6 µM mL^−1; Inhibition of the examined indicator organisms [11]: inhibited
3 | 5,6-Dimethyl-[1,3-(3,5)dimethyl-4-methyl)-benzimidazol-2-ylidene](p-cymene) ruthenium(II) chloride [Compound 3d] | 0.32 ± 0.04 | 8.45 ± 0.9 | 12.75 ± 1.7 | 32.18 ± 5.4 | 92.25 ± 11.9 | 1.8 ± 0.2 | 24.95 ± 3.7 | 1.4 ± 0.1 | 1.4 ± 0.3 | 18.17 ± 3.0 | – | – | MIC (S. typhimurium [7]): 1.95 µM mL^−1; Inhibition zone (E. coli): 29 mm; Inhibition zone (S. typhimurium [12]): 27 mm; Inhibition zone (L. monocytogenes [13]): 28 mm; Inhibition zone (S. aureus [14]): 26 mm; Inhibition zone (C. albicans [15]): 27 mm; MIC (S. aureus [8]): 1.95 µM mL^−1; MIC (C. albicans [9]): 1.25 µM mL^−1; MIC (L. monocytogenes [10]): 3.9 µM mL^−1; IZ (inhibition zone) [11, 17]: over 25 mm; MIC (minimum inhibitory concentration) [11, 17]: < 4 µM; Inhibition of the examined indicator organisms [11]: inhibited; Inhibition zone (P. aeruginosa): 27 mm
4 | 5,6-Dimethyl-[1,3-(4-(tert-butyl)-4-methyl)-benzimidazol-2-ylidene] (p-cymene) ruthenium (II) chloride [Compound 3c] | 0.37 ± 0.06 | 8.45 ± 1.2 | 12.73 ± 1.8 | 65.49 ± 11.2 | 374.87 ± 55.7 | 1.9 ± 0.4 | 38.17 ± 5.5 | 1.5 ± 0.3 | 4.2 ± 0.8 | 45.04 ± 6.6 | – | – | –
5 | 5,6-dimethyl-1,3-(3,5)-dimethyl-4-methylbenzyl)-2,3-dihydro-1H-benzo[d]imidazolium bromide [Compound 2d] | 1.9 ± 0.3 | 16.04 ± 2.9 | 26.82 ± 3.6 | 74.25 ± 11.6 | 360.90 ± 40.8 | 1.7 ± 0.3 | 43.25 ± 6.8 | 3.8 ± 0.5 | 1.4 ± 0.2 | 55.21 ± 7.4 | – | – | AChEI IC50 (electric eel AChE): 22.27 ± 3.1 µM mL^−1
6 | 5,6-dimethyl-1,3-bis(2,3,4,5,6-pentamethylbenzyl)-1H-benzo[d]imidazol-3-ium bromide [Compound 2a] | 3.2 ± 0.5 | 7.76 ± 1.1 | 11.75 ± 2.1 | 58.27 ± 7.4 | 395.75 ± 51.6 | 1.2 ± 0.2 | 45.05 ± 7.3 | 8.4 ± 1.0 | 1.1 ± 0.1 | 39.12 ± 5.9 | – | – | AChEI IC50 (electric eel AChE): 18.38 ± 2.7 µM mL^−1
7 | Cc1cc(C(C)(C)C)c(O)c(C(C)(C)C)c1 [BHT, butylated hydroxytoluene, reference compound] | – | – | – | 31.55 ± 4.8 | 89.55 ± 13.3 | – | – | – | – | 17.41 ± 2.9 | – | – | –
8 | Cc1cc(C)c(Cn2c[n+](Cc3c(C)cc(C)cc3C)c3cc(C)c(C)cc32)c(C)c1.[Br-] [Compound 2b, 5,6-dimethyl-1,3-bis(2,4,6-trimethylbenzyl)-1H-benzo[d]imidazol-3-ium bromide] | – | – | – | 63.45 ± 10.1 | 325.55 ± 48.7 | – | – | – | – | 38.14 ± 4.9 | 13.6 ± 2 | 17.4 ± 2.7 | IC50 (L. major promastigotes): 2.2 ± 0.3 µg/mL; IC50 (electric eel AChE): 27.3 µM; CC50 [16]: 1.1 ± 0.1 µg/mL; IC50 [5]: 3.7 ± 0.5 µg/mL; IC50 (L. major amastigotes): 0.3 ± 0.04 µg/mL
9 | Cc1ccc(C[n+]2cn(Cc3ccc(C(C)(C)C)cc3)c3cc(C)c(C)cc32)cc1 [Compound 2c, 5,6-dimethyl-1,3-((4-(tert-butyl)-4-methyl-benzyl)-1H-benzo[d]imidazol-3-ium bromide] | – | – | – | 70.23 ± 12.0 | 348.70 ± 52.1 | – | – | – | – | 51.27 ± 8.6 | 15.4 ± 2.6 | 20.6 ± 3.3 | IC50 (L. major promastigotes): 5.8 ± 0.9 µg/mL; IC50 (electric eel AChE): 51.6 µM; CC50 [16]: 2.9 ± 0.4 µg/mL; IC50 [5]: 2.1 ± 0.3 µg/mL; IC50 (L. major amastigotes): 1.7 ± 0.2 µg/mL
10 | CC[C@]1(O)C[C@@H]2CN(CCc3c([nH]c4ccccc34)[C@@](C(=O)OC)(c3cc4c(cc3OC)N(C)[C@H]3[C@@](O)(C(=O)OC)[C@H](OC(C)=O)[C@]5(CC)C=CCN6CC[C@]43[C@@H]65)C2)C1 [vinblastine, reference compound] | – | – | – | – | – | – | – | – | – | – | 3.83 (≈ 4.72 µM) | 6.05 (≈ 7.46 µM) | –

Source: article PMC9921063 (Molecules, 2023)
